Laboratory results as given in paper PMC4716659 (European journal of medicinal chemistry, 2015).
≈ marks a conversion by molar mass, not a printed value. Blank lines part the entries; values can stand above or below the molecule they belong to.

Assays:
[1] = system: methicillin-resistant Staphylococcus aureus (MRSA) ATCC 43300; test: MIC, broth microdilution; type: cell-based; settings: MRSA ATCC 43300
S. aureus NRS107 (MRSA) [2] = test: MIC, broth microdilution; type: cell-based, Staphylococcus aureus; settings: Staphylococcus aureus, MRSA|NRS107
S. aureus NRS119 (MRSA) [3] = test: MIC, broth microdilution; type: cell-based, Staphylococcus aureus; settings: Staphylococcus aureus, MRSA|NRS119
S. aureus NRS194 (MRSA) [4] = test: MIC, broth microdilution; type: cell-based, Staphylococcus aureus; settings: Staphylococcus aureus, MRSA|NRS194
S. aureus USA300 (MRSA) [5] = test: MIC, broth microdilution; type: cell-based, Staphylococcus aureus; settings: Staphylococcus aureus, MRSA|USA300
S. aureus USA 400 (MRSA) [6] = test: MIC, broth microdilution; type: cell-based, Staphylococcus aureus; settings: Staphylococcus aureus, MRSA|USA400
S. aureus USA500 (MRSA) [7] = test: MIC, broth microdilution; type: cell-based, Staphylococcus aureus; settings: Staphylococcus aureus, MRSA|USA500
S. aureus NRS1 (VISA) [8] = test: MIC, broth microdilution; type: cell-based, Staphylococcus aureus; settings: Staphylococcus aureus, NRS1|VISA
S. aureus NRS19 (VISA) [9] = test: MIC, broth microdilution; type: cell-based, Staphylococcus aureus; settings: Staphylococcus aureus, NRS19|VISA
S. aureus NRS37 (VISA) [10] = test: MIC, broth microdilution; type: cell-based, Staphylococcus aureus; settings: Staphylococcus aureus, NRS37|VISA
S. aureus VRS1 (VRSA) [11] = test: MIC, broth microdilution; type: cell-based, Staphylococcus aureus; settings: Staphylococcus aureus, VRSA
S. aureus VRS4 (VRSA) [12] = test: MIC, broth microdilution; type: cell-based, Staphylococcus aureus; settings: Staphylococcus aureus, VRSA
S. aureus VRS5 (VRSA) [13] = test: MIC, broth microdilution; type: cell-based, Staphylococcus aureus; settings: Staphylococcus aureus, VRSA
S. aureus NRS107 (MRSA) [14] = test: MBC, plating onto TSA; type: cell-based, Staphylococcus aureus; settings: Staphylococcus aureus, MRSA|NRS107
S. aureus NRS119 (MRSA) [15] = test: MBC, plating onto TSA; type: cell-based, Staphylococcus aureus; settings: Staphylococcus aureus, MRSA|NRS119
S. aureus NRS194 (MRSA) [16] = test: MBC, plating onto TSA; type: cell-based, Staphylococcus aureus; settings: Staphylococcus aureus, MRSA|NRS194
S. aureus USA300 (MRSA) [17] = test: MBC, plating onto TSA; type: cell-based, Staphylococcus aureus; settings: Staphylococcus aureus, MRSA|USA300
S. aureus USA 400 (MRSA) [18] = test: MBC, plating onto TSA; type: cell-based, Staphylococcus aureus; settings: Staphylococcus aureus, MRSA|USA400
S. aureus USA500 (MRSA) [19] = test: MBC, plating onto TSA; type: cell-based, Staphylococcus aureus; settings: Staphylococcus aureus, MRSA|USA500
[20] = system: S. aureus ATCC 43300 (MRSA); test: MBC, plating onto TSA; type: cell-based, Staphylococcus aureus; settings: Staphylococcus aureus, ATCC43300|MRSA
S. aureus NRS1 (VISA) [21] = test: MBC, plating onto TSA; type: cell-based, Staphylococcus aureus; settings: Staphylococcus aureus, NRS1|VISA
S. aureus NRS19 (VISA) [22] = test: MBC, plating onto TSA; type: cell-based, Staphylococcus aureus; settings: Staphylococcus aureus, NRS19|VISA
S. aureus NRS37 (VISA) [23] = test: MBC, plating onto TSA; type: cell-based, Staphylococcus aureus; settings: Staphylococcus aureus, NRS37|VISA
S. aureus VRS1 (VRSA) [24] = test: MBC, plating onto TSA; type: cell-based, Staphylococcus aureus; settings: Staphylococcus aureus, VRSA
S. aureus VRS4 (VRSA) [25] = test: MBC, plating onto TSA; type: cell-based, Staphylococcus aureus; settings: Staphylococcus aureus, VRSA
S. aureus VRS5 (VRSA) [26] = test: MBC, plating onto TSA; type: cell-based, Staphylococcus aureus; settings: Staphylococcus aureus, VRSA
two VISA isolates = test: MIC against VISA isolates; type: cell-based; settings: Staphylococcus aureus
[27] = system: human embryonic kidney (HEK293) cell line; test: In vitro cytotoxicity, MTS assay; settings: 40 μg/mL
[28] = Staphylococcus aureus, ATCC43300|MRSA

MIC [1, 28]: > 39.8 µg/mL
SMILES: CC(=O)c1sc(-c2ccc(-c3ccc(F)cc3)cc2)nc1C [21b, 1-(2-(4′-Fluoro-[1,1′-biphenyl]-4-yl)-4-methylthiazol-5-yl)ethanone]

MIC [1, 28]: > 46.2 µg/mL
SMILES: CC(=O)c1sc(-c2ccc(-c3ccc(C(F)(F)F)cc3)cc2)nc1C [21c, 1-(4-Methyl-2-(4′-(trifluoromethyl)-[1,1′-biphenyl]-4-yl)thiazol-5-yl)ethanone]

MIC [1]: >46.7 µg/mL
MIC [1, 28]: > 36.9 µg/mL
SMILES: [H]/N=C(\N)NN=C(C)c1sc(-c2ccc(-c3ccc(O)cc3)cc2)nc1C [22a, (E)-2-(1-(2-(4′-Hydroxy-[1,1′-biphenyl]-4-yl)-4-methylthiazol-5-yl)ethylidene)hydrazinecarboximidamide]

MIC (S. aureus NRS107 (MRSA) [2]): 2.9 µg/mL (≈ 7.89 µM)
MIC (S. aureus NRS119 (MRSA) [3]): 5.9 µg/mL (≈ 16.1 µM)
MIC (S. aureus NRS194 (MRSA) [4]): 5.9 µg/mL (≈ 16.1 µM)
MIC (S. aureus USA300 (MRSA) [5]): 5.9 µg/mL (≈ 16.1 µM)
MIC (S. aureus USA 400 (MRSA) [6]): 5.9 µg/mL (≈ 16.1 µM)
MIC (S. aureus USA500 (MRSA) [7]): 5.9 µg/mL (≈ 16.1 µM)
MIC [1, 28]: 5.9 µg/mL (≈ 16.1 µM)
MIC (S. aureus NRS1 (VISA) [8]): 2.9 µg/mL (≈ 7.89 µM)
MIC (S. aureus NRS19 (VISA) [9]): 5.9 µg/mL (≈ 16.1 µM)
MIC (S. aureus NRS37 (VISA) [10]): 2.9 µg/mL (≈ 7.89 µM)
MIC (S. aureus VRS1 (VRSA) [11]): 2.9 µg/mL (≈ 7.89 µM)
MIC (S. aureus VRS4 (VRSA) [12]): 2.9 µg/mL (≈ 7.89 µM)
MIC (S. aureus VRS5 (VRSA) [13]): 2.9 µg/mL (≈ 7.89 µM)
MIC (two VISA isolates): 2.9 to 5.9 µg/mL (≈ 7.89 to 16.1 µM)
SMILES: [H]/N=C(\N)NN=C(C)c1sc(-c2ccc(-c3ccc(F)cc3)cc2)nc1C [22b, (E)-2-(1-(2-(4′-Fluoro-[1,1′-biphenyl]-4-yl)-4-methylthiazol-5-yl)ethylidene)hydrazinecarboximidamide]
MBC (S. aureus NRS107 (MRSA) [14]): 5.9 µg/mL (≈ 16.1 µM)
MBC (S. aureus NRS119 (MRSA) [15]): 11.7 µg/mL (≈ 31.8 µM)
MBC (S. aureus NRS194 (MRSA) [16]): 11.7 µg/mL (≈ 31.8 µM)
MBC (S. aureus USA300 (MRSA) [17]): 5.9 µg/mL (≈ 16.1 µM)
MBC (S. aureus USA 400 (MRSA) [18]): 11.7 µg/mL (≈ 31.8 µM)
MBC (S. aureus USA500 (MRSA) [19]): 5.9 µg/mL (≈ 16.1 µM)
MBC [20]: 5.9 µg/mL (≈ 16.1 µM)
MBC (S. aureus NRS1 (VISA) [21]): 2.9 µg/mL (≈ 7.89 µM)
MBC (S. aureus NRS19 (VISA) [22]): 5.9 µg/mL (≈ 16.1 µM)
MBC (S. aureus NRS37 (VISA) [23]): 5.9 µg/mL (≈ 16.1 µM)
MBC (S. aureus VRS1 (VRSA) [24]): 2.9 µg/mL (≈ 7.89 µM)
MBC (S. aureus VRS4 (VRSA) [25]): 2.9 µg/mL (≈ 7.89 µM)
MBC (S. aureus VRS5 (VRSA) [26]): 2.9 µg/mL (≈ 7.89 µM)
toxicity to mammalian cells (MTS assay) [27]: toxic
